Where two headings read alike, the source gives them in different places.
Columns and labels:
[1] = test system: in vitro BBB model (co-culture of bovine brain capillary endothelial cells and rat glial cells); experiment: In vitro BBB co-culture model, Cu,br/Cu,pl ratio; settings: for In vitro Cu,br/Cu,pl Mean 1 h: 2 µM in luminal compartment, abluminal/luminal concentration at 1 h; for In vitro Cu,br/Cu,pl Mean steady-state: steady-state ratio computed from 1 h data with the blue-norna steady-state calculator
Description: Figure 1 Schematic diagram of the experimental protocol. After 12 days of coculture in cell culture medium, both compartments of the in vitro BBB model consisting of a coculture of brain capillary endothlial cells and rat primary glial cells were filled with Hepes-buffered Ringer’s solution and the compounds dissolved at 2 µM were added in the luminal compartment (i.e donor). The presence of glial cells in the abluminal compartment was used to reproduce the non specific binding to brain tisssue within the brain prenchyma in vivo. After 1 hour, aliquots were taken from both compartments. In vitro Cu,br/Cu,pl at 1 h were calculated by dividing the concentration in the abluminal compartment (∼Cu,br) by the concentration in the luminal compartment (∼Cu,pl) at 1 h. The experimental data at 1 h were computed using the blue-norna steady-state calculator to generate the in vitro steady-state Cu,br/Cu,pl.
One hour after the addition of compounds dissolved at 2 µM in the luminal (i.e upper) compartment, aliquots were taken from both compartments previously filled with Hepes-buffered Ringer’s solution at the beginning of the experiment. […] The concentrations in both compartments of the in vitro assay after 1 h were computed using […] blue-norna.com to generate the in vitro steady-state Cu,br/Cu,pl.
The method of Dehouck et al. was used with minor modifications (Fig. 1). Bovine brain endothelial cells isolated from capillary fragments were cocultured with primary mixed glial cells from newborn Sprague–Dawley rats. The glial cells were isolated according to the method of Booher and Sensenbrenner and cultured for 3 weeks, plated on the bottom of cell culture clusters containing six wells each. The endothelial cells were seeded onto collagen-coated polycarbonate cell culture inserts (4.7 cm^2) (Corning Incorp. NY, USA), which were placed in the wells containing glial cells. The medium used for the coculture was Dulbecco’s modified Eagle’s medium supplemented with 10% calf serum, 10% horse serum, 2 mmol/L glutamine, 50 mg/L gentamicin and 1 µg/L basic fibroblast growth factor (Sigma). The medium was changed every second day. Experiments were usually initiated after 12 days of co-culture.
To monitor the integrity of the endothelial cell monolayer, the marker molecule [^14C] sucrose was added to the solution at a concentration of 0.05 µCi/ml. At the start of the transport experiments, buffered Ringer’s solution (pH = 7.4) was added to wells with glial cells. Inserts with brain endothelial cells were placed in these wells and drug solutions at 2 µM were added to the donor compartment. The plates were incubated for 1 h in a polymix shaker at 37°C with a low shaking velocity. Aliquots were taken from the donor compartment in the beginning and at the end of the experiments. The receiver compartments were sampled at the end of the experiments.
The amount of radiotracer in the abluminal compartment was measured in a liquid scintillation analyser (Packard Instrument Company, Meriden, USA). […] The concentrations of the test compound in all samples were analysed by MS/MS.
The mean free brain/plasma ratios were calculated from three individual experiments. One hour ratios were calculated by dividing the drug concentration in the receiver compartment by the free drug concentration in the donor compartment after 1 h. The experimental data at one hour (i.e concentration in both compartment at the beginning of the experiment and after 1 h) were computed using the blue-norna® steady-state calculator (www.blue-norna.com) to predict the in vivo steady-state Cu,br/Cu,pl ratios. For further details on this calculation method see file S1.
The in vivo steady-state Cu,br/Cu,pl were predicted from the in vitro experimental data collected after one hour according to the following equation: […]
Cdonor, t and Creceiver, t are the concentration of drug in the donor and receiver chambers at time t.

[2] = Fraction unbound brain (fu,br), brain homogenate equilibrium dialysis
Description: The degree of brain binding was assessed by equilibrium dialysis. Brain homogenate (10%) was spiked with test compound at 1 µM in triplicate. […] The plate was then placed in a shaker/incubator to equilibrate for 18 hrs at 37°C. […] After the addition of 50 µl of buffer to the brain homogenate samples, 150 µl of acetonitrile was added to each sample. Finally, 50 µl of water was added to all buffer and brain homogenate samples. The plates were centrifuged and the supernatant analyzed by LC-MS/MS.

[3] = Fraction unbound brain (fu,br), brain slice method
Description: Rats (male Sprague-Dawley) were decapitated under isoflurane anesthesia and the brains were removed carefully and immersed in ice-cold oxygenated physiological buffer at pH7.4. A 6 mm coronal section was cut with a razor and mounted with cyanoacrylate glue onto the tray of the microslicer (DTK-Zero 1 Microslicer, Dosak) after which six to eight 300 µm coronal slices from striatal areas were prepared. […] The compounds were dissolved at 1 µM in the buffer and the solution was incubated with the slice for 5 h.
After 5 h, the brain slices were weighed and homogenized in 9 volumes (w/v) of ECF buffer with a sonicator (SONICS VCX 500 and VCX 130). The slice homogenates in ECF buffer were stored at −20°C prior to analysis. The concentrations of the test compound in the brain slice homogenate and in the ECF buffer was determined by LC-MS/MS.
The unbound volume of distribution Vu,brain, or free fraction fu,brain was calculated according to the following equations: [drawing 1] [drawing 2] where Cslice, CECF and V0 are amount of drug in the slice, the drug concentration in the ECF (representing the drug concentration in the brain ECF, i.e. the free concentration), and the water adhesion of the brain slice. V0 has been estimated using ^14C -inulin in a separate experiment in which brain slices were incubated for 1, 2, and 4 min. V0 was obtained from brain slice uptake – inulin time profile (apparent zero-time intercept).

[4] = In vivo brain exposure (Cu,br/Cu,pl) under steady-state like conditions after intravenous administration; settings: rat, i.v. bolus plus infusion; for In vivo Cu,br/Cu,pl (homog.) Mean steady-state: Cbr/Cpl x fubr/fupl with fu,br from brain homogenate; for In vivo Cu,br/Cu,pl (slice) Mean steady-state: Cbr/Cpl x fubr/fupl with fu,br from brain slice
Description: Rat plasma was obtained from Sprague-Dawley rats in-house. Plasma from three individuals was pooled and mixed with up to 4 compounds with a concentration of 10 µM each (in 0.1% DMSO). A 48-well dialysis apparatus (AstraZeneca, Mölndal) was used to determine the plasma free fraction. The dialysis membrane (AstraZeneca, Mölndal) was conditioned in Milli/Q water before use. […] The samples were incubated on an orbital shaker (4 mm in diameter and 100 rpm) at 37 °C for 18 hrs. […] After plasma protein precipitation by the addition of 150 µl of acetonitrile to each plasma sample in order to precipitate plasma proteins. The plates were centrifuged and the supernatant analyzed by LC-MS/MS. The fu in plasma was calculated from the ratio of the MS-area of the compound in the buffer to the MS-area of the compound in the plasma.
The CNS exposure of 92 compounds (i.e 30 drugs and 62 proprietary compounds) was assessed under steady-state like conditions after intravenous administration. The time to approach steady-state (taken as at least 3.5 half-lives) was determined from prior studies of the pharmacokinetics of individual compounds after intravenous administration. The rats were put in restraint cages and cannulated via the tail vein. On the day of the experiment, the rats received a bolus injection followed by infusion. The infusion rate and infusion time were determined separately for each compound. The test formulation was administered using an infusion pump (CMA/100 or Univentor 400 microinjection pump).
Blood samples (400 µL) were collected by rapidly anaesthetizing the rats and keeping them under anesthesia with isofluran. Blood was collected either through heart puncture, from the tail vein or the orbital venous plexus and put into EDTA tubes, which were immediately placed on ice and centrifuged within 30 min at 4°C for 5 min at 2000 g to obtain plasma. The plasma was transferred by glass or plastic pipettes to 1.5 ml MTP system topaz vials and immediately frozen to −70°C or lower and stored at −20°C until assayed.
After blood collection, the whole brain was rapidly removed from the animal skull and weighed after which it was frozen and stored at −20°C. Before analysis with LC-MS/MS, the brain samples were sonicated (SONICS Vibracell VCX 130) in Ringer solution (2-fold the brain weight; e.g. 1 gram brain plus 2 mL Ringer).
The unbound brain exposure was assessed as Cu,br/Cu,pl, which is the free brain-free plasma concentration ratio. The Cu,br/Cu,pl ratios were obtained from total brain plasma ratios (Ctot,br/Ctot,pl) by using in vitro determined fu,br and fu,pl values according to: [drawing 4]
Brain concentrations were corrected for residual blood volume using 13 µl/g based on the vascular space of the marker [14C]-sucrose.

SMILES	In vitro Cu,br/Cu,pl Mean 1 h [1]	In vitro Cu,br/Cu,pl Mean steady-state [1]	fubrain (homog.) Mean [2]	fubrain (slice) Mean [3]	In vivo Cu,br/Cu,pl (homog.) Mean steady-state [4]	In vivo Cu,br/Cu,pl (slice) Mean steady-state [4]	fubrain (homog.) Mean ([2]; brain homogenate (10%), 1 µM, equilibrium dialysis 18 hrs at 37°C)	fubrain (slice) Mean ([3]; rat brain slices 300 µm, 1 µM, 5 h incubation)
Fc1ccc([C@@H]2CCNC[C@H]2COc2ccc3c(c2)OCO3)cc1 [Paroxetin]	0.08	0.79	0.0039	0.0024	0.86	0.53	–	–
CC(NC(C)(C)C)C(=O)c1cccc(Cl)c1 (stereo not drawn) [Buproprion]	0.24	0.51	–	–	1.07	1.00	0.1710	0.1600

Reference: publication PMC3849192, “A Simple Method for Assessing Free Brain/Free Plasma Ratios Using an In Vitro Model of the Blood Brain Barrier” (PLoS ONE, 2013)
